This assay relates to regenerated shoots of Mentha arvensis varieties. Kind of assay: whole plant or invertebrate. Type of assay: cell-based. To be noted: 168 h, read-out: mortality of shoots. An excerpt:
The plant varieties analysed were Himalaya, Shivalik, Gomti, MAS-1, Kosi, Kalka of Mentha arvensis L. (2n=96). The suckers of these plant varieties were obtained from CIMAP's national gene bank for medicinal and aromatic plants for planting. The explant materials were collected from the field grown plants and surface sterilized by washing sequentially with 2% detergent, distilled water containing a few drops of Savlon (Johnson and Johnson, India), 0.1% acidified mercuric chloride and autoclaved distilled water before inoculation. About 1 cm long internodal pieces were inoculated in the MS medium (Murasighe and Skoog, 1962) containing vitamins, 100 mg l^−1 myo-inositol 3% wv^−1 sucrose, 1.5% wv^−1 agar (Difco), 0.5 .μg ml^−1 of an auxin, (NAA, 1-napthalene acetic acid) and 5 μg ml^−1 of a cytokinin (BAP, benzyl aminopurine) (Shasany et al, 1998). The cultures were grown at 25±2° C. and 400 to 600 lux light intensity with 16 h photoperiod. The regenerated shoots were separated 12 weeks after the explant inoculation for rooting and/or testing menthol tolerance.
The regenerated shoots (3-4 cm long, containing the apical bud and 2-3 nodes) separated after 12 weeks, were inoculated into MS basal medium with or without menthol (0 to 100 μg ml^−1). […] The wilting response and lethality in explants was recorded every 24 hours over a period of one week.

For the molecule `CC1CCC(C(C)C)C(O)C1` (stereo not shown) [menthol], the mortality at 80 ppm was 100%.

The mortality is the share of the test organisms that died.

The values above are taken from patent US6423541B1, “Process for in vitro selection of high methol producing genotypes” (Council of Scientific&Industrial Reaearch, priority 2000, dated 2002).
